According to patent US11291840B2, “Neuronal stimulation model, device and methods using alternate current” (priority 2017, dated 2022):

B1: neurotrophin-3 (protein, UniProt P20783 139-257, looked up)
Neurotrophin-3: YAEHKSHRGEYSVCDSESLWVTDKSSAIDIRGHQVTVLGEIKTGNSPVKQYFYETRCKEARPVKNGCRGIDDKHWNSQCKTSQTYVRALTSENNKLVGWRWIRIDTSCVCALSRKIGRT
notes: neurotrophic factor delivered locally as soluble factor
B2: brain-derived neurotrophic factor (protein, UniProt P23560 19-247, looked up)
Neurotrophic factor BDNF …: APMKEANIRGQGGLAYPGVRTHGTLESVNGPKAGSRGLTSLADTFEHVIEELLDEDQKVRPNEENNKDADLYTSRVMLSSQVPLEPPLLFLLEEYKNYLDAANMSMRVRRHSDPARRGELSVCDSISEWVTAADKKTAVDMSGGTVTVLEKVPVSKGQLKQYFYETKCNPMGYTKEGCRGIDKRHWNSQCRTTQSYVRALTMDSKKRIGWRFIRIDTSCVCTLTIKRGR
notes: as for B1
B3: glial-derived neurotrophic factor (protein, UniProt P39905 78-211, looked up)
Glial cell line-derived …: SPDKQMAVLPRRERNRQAAAANPENSRGKGRRGQRGKNRGCVLTAIHLNVTDLGLGYETKEELIFRYCSGSCDAAETTYDKILKNLSRNRRLVSDKVGQACCRPIAFDDDLSFLDDNLVYHILRKHSAKRCGCI
notes: as for B1

Test system: dissociated rat cortical neurons
Test: Axon 3D growth after local delivery of soluble factors in silk scaffold/collagen gel 3D brain tissue model (β III-tubulin staining, 3D neurite tracing)
Type: cell-based
Conditions: for Axon length: 3D culture, mean±SEM; for axon abundance in center core of 3D cultures (β III-tubulin 2D projections): ECM components compared to neurotrophic factors, ranking among neurotrophic factors; for axons longer compared to BDNF / axons longer compared to the control: axon lengths at DIV 7, 4 days exposure; for axons longer compared to BDNF: vs BDNF; for axons longer compared to the control: vs control culture
Source text: In one aspect of the present disclosure, control of axon growth and alignment in a CNS environment is critical for nervous system development and regenerative growth. The present disclosure explores the effects of exogenous stimulus of electrical signals and soluble factors on axon 3D growth, using a silk protein material-based 3D brain tissue model. A pair of gold wires were threaded into the 3D tissue model, positioned at the interface of the scaffold region and the center gel region, spanning the axon growth area. This setup delivered applied electrical field directly to growing axons, and the effects were compared to local delivery of soluble factors including extracellular (ECM) components and neurotrophic factors. In one embodiment, dissociated rat cortical neurons were exposed to an alternating field of 80 mV/mm at 0.5 Hz to 2 kHz or soluble factors for up to 4 days, starting on day 3 in vitro (DIV 3), and evaluated by of β III-tubulin immunostaining, confocal imaging and 3D neurite tracing. […] In one embodiment, though axon lengths under 2 Hz stimulation and LN or FN exposure were statistically similar, significant AC-induced axon orientation was found under all frequencies tested. In one embodiment, the effects include perpendicular orientation of axons trespassing an electrode and aligned axon tracts in parallel to the field direction. In one embodiment, the electrode in AC field acts as an alternating cathode that attracts the growing tip of the axon, and AC field between pair electrodes orient axon tract formation in parallel to the field direction. Provided in this disclosure is the use of alternating electric field stimulation to direct axon 3D length growth and orientation. In one aspect, the present disclosure provides stimulation parameters, in conjunction of delivery of growth promoting soluble factors in a brain mimetic 3D environment. In one aspect, the present disclosure teaches the fundamental effects of electrical fields on nervous system development and for testing neuromodulation approaches to promote neural regeneration.
The 3D brain tissue is composed of silk protein material-based scaffold and infused extracellular matrix (ECM) gel, such as collagen type I gel used in this study, as described previously (Tang-Schomer, 2014, 2015). The center region of the donut-shaped scaffold is filled with ECM gel only, for axon outgrowth; whereas the cell bodies are confined to the scaffold region. […]
Axon growth in the 3D brain tissue model was compared after local delivery of soluble factors, including extracellular matrix components such as laminin (LN) and fibronectin (FN) and brain-derived neurotrophic factor (BDNF), glial-derived neurotrophic factor (GDNF), neurotrophin-3 (NT3), and nerve growth factor (NGF) (FIGS. 13A-M). FIGS. 13A-J show representative 2D projections of β III-tubulin stained axons in the center core of 3D cultures.
The rat brain tissue dissociation protocol was approved by Tufts University Institutional Animal Care and Use Committee and complies with the NIH Guide for the Care and Use of Laboratory Animals (IACUC #B2011-45). Cortices from embryonic day 18 (E18) Sprague Dawley rats (Charles River, Wilmington, Mass., USA) were isolated, dissociated with trypsin (0.3%, Sigma) and DNase (0.2%, Roche Applied Science, Indianapolis, Ind., USA) followed with trypsin inhibition with soybean proteins (1 mg/mL, Sigma), centrifuged, and plated at 200,000-625,000 cells/cm^2 in NeuroBasal media (Invitrogen, Carlsbad, Calif., USA) supplemented with B-27 neural supplement, penicillin/streptomycin (100 U/mL and 100 μg/mL), and GlutaMax (2 mM) (Invitrogen). Cultures were maintained in 37° C., 100% humidity and 5% CO2 in an incubator (Forma Scientific, Marietta, Ohio, USA) for up to 16 days in vitro (DIV 1-16). Cultures of DIV 14-16 were used for stimulation.
Silk solution and porous scaffolds were prepared from Bombyx mori cocoons as described previously (Tang-Schomer et al., 2014). […]

[1] = 48 hr exposure after local delivery of soluble factor
[2] = 4 ds exposure of soluble factor (DIV 7), in µm

Row | Molecule | Axon length [1] [μm] | Axon length [2] | axon abundance in center core of 3D cultures (β III-tubulin 2D projections) | axons longer compared to BDNF [%] | axons longer compared to the control [%] | axon appearance after 48 hr exposure (48 hr exposure) | axon appearance after 4 days (4 days after local delivery)
1 | nerve growth factor [NGF] | 706.5±33.4 | 1045.6±61.9 |  |  |  |  | 
2 | laminin [LN] | 1237.7±51.3 | 1332.5±71.0 | more abundant axons | ~18 | ~33 |  | 
3 | fibronectin [FN] | 1220.7±57.5 | 1411.8±45.1 | more abundant axons | ~25 | ~41 |  | 
4 | B1 | 728.2±42.5 | 784.3±71.6 |  |  |  | robust growth | signs of axon degeneration
5 | B2 | 946.8±35.2 | 1131.1±52.0 | most abundant axons |  | ~13 |  | 
6 | B3 | 802.5±38.0 | 1068.3±43.9 |  |  |  |  | 
